Reference: patent US20140057997A1, “COSMETIC COMPOSITION COMPRISING 4-(3-ETHOXY-4-HYDROXYPHENYL)-2-BUTANONE AND A LIPOPHILIC SOLVENT” (L'OREAL, priority 2011, published 2014)

Experiment: Solubility stated in the introduction
Type: physicochemical

Measured: Solubility

CCOc1cc(CCC(C)=O)ccc1O [4-(3-ethoxy-4-hydroxyphenyl)-2-butanone, 4-(3-Ethoxy-4-hydroxyphenyl)-2-butanone]
very sparingly soluble: in 2-octyldodecanol | in glycerol | in water
